US10988465B2, “CXCR4 inhibitors and uses thereof” (X4 Pharmaceuticals, Inc., priority 2016, dated 2021)
Values joined by “and” are separate entries in the source; they are usually repeats but may differ in a detail not shown here. Equal entries are not always repeated. Where two headings read alike, the source gives them in different places. Each block holds one compound with its values, some of them ahead of it.

Columns and labels:
[1] = Mouse brain uptake assay (MBUA), 3 mg/kg IV, 0-24 h, 4 time points; format: in vivo, male CD1 mice
Method: Example 38: Pharmacokinetics and Brain Penetration Experiment to Determine Brain and Plasma Concentrations of Compounds after IV Administration to Male CD1 Mice
The study design (9 animals) consisted of administrating the drug (IV: 3 mg/kg (5 mL/kg) via tail vein injection) and collecting samples at terminal bleeding for plasma and brain at 0.083, 0.5 and 1 h. The IV dosing solution was prepared in 50 mM citrate buffer (pH 4.0) at 0.6 mg/mL. The blood collection was performed as follows: the animal was restrained manually and approximately 150 μL blood/time point was collected into a dipotassium EDTA tube via retro orbital puncture under anesthesia with isoflurane. The blood sample was put on ice and centrifuged to obtain a plasma sample (2000 g, 5 min under 4° C.) within 15 minutes. The brain collection was performed as follows: a mid-line incision was made in the animal's scalp and the skin was retracted. Using small bone cutters and rongeurs, the skull overlying the brain was removed. The brain was removed using a spatula and the brain rinsed with cold saline. The brain was placed in screw-top tubes, and the tubes were stored at −70° C. until analysis.
An aliquot of 30 μL sample was added to 150 μL MeCN containing 50 ng/mL IS (Dexamethasone). The mixture was vortexed for 5 min and centrifuged at 14,000 rpm for 5 min. An aliquot of 5 μL supernatant was injected for LC-MS/MS analysis.
An aliquot of 30 μL brain homogenate (brain:PBS=1:3, w/v) sample was added to 150 μL IS in MeCN (Dexamethasone, 50 ng/mL). The mixture was vortexed for 5 min and centrifuged at 14,000 rpm for 5 min. An aliquot of 5 μL supernatant was injected for LC-MS/MS analysis.
The sample analysis was performed on LCMS/MS-003 (API4000, triple quadruple) under the following conditions: positive ion, ESI, MRM detection using dexamethasone as internal standard. HPLC conditions: mobile phase A: H2O (0.025% formic acid (FA) with 1 mM NH4OAc); mobile phase B: MeOH (0.025% FA with 1 mM NH4OAc) on Waters X-Bridge C18 (2.1×50 mm, 2.5 μm) column at 60° C.
A similar experiment was performed with 4 time points taken from 0-24 h.

[2] = 7-day toxicology study in mice (clinical observations, body weight, food consumption, necropsy, hematology); format: in vivo, male C57BL/6 mice; conditions: for WBC (10^9/L), Mean: group mean; for WBC (10^9/L), Mean / WBC (10^9/L): day 8, 24 hours after last dose; for WBC (10^9/L): individual animal
Method: Example 41: 7-Day Toxicology Study in Mice
Blood samples were taken on day 8, 24 hours after last dose.

[3] = 7-day mouse toxicology study: toxicokinetics (plasma, brain, CSF), 30 mg/kg/day PO; format: in vivo, male C57BL/6 mice; conditions: for Cmax / Tmax / AUC(0-t) / AUC(0-inf) / half-life: male, C57BL/6, mouse, po
Method: The PO dosing solutions were prepared in 50 mM citrate buffer (pH 4.0) at 3 mg/mL. The blood collection was performed as follows: the animal was anesthetized under isoflurane. Approximately 500 μL blood/time point was collected into K2EDTA tube via cardiac puncture for terminal bleeding. ˜200 μL blood samples were put on ice and centrifuged to obtain plasma sample (2000 g, 5 min under 4° C.) within 15 minutes of collection. ˜300 blood samples were used for hematology assay. The brain collection was performed as follow: a mid-line incision was made in the animal's scalp and skin retracted. The skull overlying the brain was removed. The whole brain was collected, rinsed with cold saline, dried on filtrate paper, weighted, and snap frozen by placing into dry ice. The brain sample was homogenized for 2 min with 3 volumes of PBS (pH 7.4) by Mini-bead-beater before sample extraction.
An aliquot of 10 μL sample was added to 200 μL MeCN containing 10 ng/mL IS (Glipizide). The mixture was vortexed for 10 min and centrifuged at 6,000 rpm for 10 min. An aliquot of 1 μL constitution was injected for LC-MS/MS analysis.
An aliquot of 3 μL sample was added to 70 μL MeCN containing 10 ng/mL IS (Glipizide). The mixture was vortexed for 2 min and centrifuged at 14,000 rpm for 5 min. An aliquot of 1 μL constitution was injected for LC-MS/MS analysis.
The sample was homogenized with 3 volumes (v/w) of PBS. An aliquot of 10 μL sample was added to 200 μL MeCN containing 10 ng/mL IS (Glipizide). The mixture was vortexed for 10 min and centrifuged at 6,000 rpm for 10 min. An aliquot of 1 μL constitution was injected for LC-MS/MS analysis.
The sample analysis was performed on LCMSMS-28 (Triple Quad 6500+) under the following conditions: positive ion, ESI, MRM detection using glipizide as internal standard. HPLC conditions: mobile phase A: H2O/0.025% FA with 1 mM NH4OAc, mobile phase B: MeOH/0.025% FA with 1 mM NH4OAc on Waters X-Bridge BEH C18 (2.1×50 mm, 2.5 μm) column at 60° C.

[4] = CSF, 30 mg/kg, Day 1, CSF, 30 mg/kg PO
[5] = CSF, 30 mg/kg, Day 7, CSF, 30 mg/kg PO
[6] = brain, 30 mg/kg, Day 1, Brain, 30 mg/kg PO
[7] = brain, 30 mg/kg, Day 7, Brain, 30 mg/kg PO
[8] = plasma, 30 mg/kg, Day 1, Plasma, 30 mg/kg PO
[9] = plasma, 30 mg/kg, Day 7, Plasma, 30 mg/kg PO

Kp ([1]; male, CD1, mouse, brain/plasma, iv, 3 mg/kg): 4.17
clearance ([1]; male, CD1, plasma, mouse, 3 mg/kg IV, 0-24 h, 4 time points): 26.2 mL/min/kg
half-life ([1]; male, CD1, plasma, mouse, 3 mg/kg IV, 0-24 h, 4 time points, read-out: t½ (converted)): 3.5 h
AUC(0-t) ([1]; male, CD1, brain, mouse, 3 mg/kg IV, 0-24 h, read-out: AUClast (b)): 7930 ng·h/mL
AUC(0-t) ([1]; male, CD1, plasma, mouse, 3 mg/kg IV, 0-24 h, read-out: AUClast (P)): 1900 ng·h/mL
Kp uu ([1]; male, CD1, unbound brain/unbound plasma, mouse, 3 mg/kg IV, 0-24 h): 1.15
fraction unbound ([1]; mouse, fraction unbound to brain proteins, read-out: Fu (b) %): 0.035
fraction unbound ([1]; mouse, fraction unbound to plasma proteins, read-out: Fu (p) %): 0.127
SMILES: CN1CCN(c2cccc3nc([C@H]4CCC[C@@H](c5ncccc5Cl)N4)[nH]c23)CC1 (racemic) [I-122]

SMILES: Cc1cccnc1[C@@H]1CCC[C@H](c2nc3cccc(N4CCN(C)CC4)c3[nH]2)N1C (racemic) [I-3, 2-((2R,6S)-1-methyl-6-(3-methylpyridin-2-yl)piperidin-2-yl)-7-(4-methylpiperazin-1-yl)-1H-benzo[d]imidazole]
WBC (10^9/L), Mean ([2]; Group 2, PO-10 mg/kg): 4.92 10^9/L
WBC (10^9/L) ([2]; Group 2, PO-10 mg/kg, 10 mg/kg): 3.67 10^9/L and 6.66 10^9/L and 4.44 10^9/L
WBC (10^9/L), Mean ([2]; Group 3, PO-30 mg/kg): 8.58 10^9/L
WBC (10^9/L) ([2]; Group 3, PO-30 mg/kg, 30 mg/kg): 11.6 10^9/L and 6.51 10^9/L and 7.69 10^9/L
WBC (10^9/L), Mean ([2]; Group 4, PO-100 mg/kg): 18.7 10^9/L
WBC (10^9/L) ([2]; Group 4, PO-100 mg/kg, 100 mg/kg): 20.4 10^9/L
necropsy finding ([2]; dose of 30 mg/kg P.O., 7 days): One mouse had an enlarged kidney
white blood cells ([2]; dose of 100 mg/kg P.O., 7 days): sustained increase
overt toxicity (clinical observations, body weight, food consumption) ([2]; male C57BL/6 mice, 7 days repeat dosing up to 100 mg/kg/day by oral gavage): no overt signs of toxicity
body weight ([2]; male C57BL/6 mice, 7 days, up to 100 mg/kg/day by oral gavage): remained stable
AUCCSF/AUCbrain ([3]; Day 1, 30 mg/kg PO): 3.55%
AUCCSF/AUCbrain ([3]; Day 7, 30 mg/kg PO): 0.325%
Cmax [3, 4]: 11.3 ng/mL
Tmax [3, 4]: 8 h
AUC(0-t) ([3]; CSF, 30 mg/kg, Day 1, CSF, 30 mg/kg PO, read-out: AUClast): 151 ng·h/mL
Cmax [3, 5]: 6.42 ng/mL
Tmax [3, 5]: 4 h
AUC(0-t) ([3]; CSF, 30 mg/kg, Day 7, CSF, 30 mg/kg PO, read-out: AUClast): 35.5 ng·h/mL
AUC(0-inf) [3, 6]: 8880 ng·h/mL
Cmax [3, 6]: 219 ng/mL
Tmax [3, 6]: 4 h
AUC(0-t) ([3]; brain, 30 mg/kg, Day 1, Brain, 30 mg/kg PO, read-out: AUClast): 4260 ng·h/mL
half-life ([3]; brain, 30 mg/kg, Day 1, Brain, 30 mg/kg PO, read-out: Terminal t1/2 (converted)): 25 h
AUC(0-inf) [3, 7]: 29500 ng·h/mL
Cmax [3, 7]: 615 ng/mL
Tmax [3, 7]: 1 h
AUC(0-t) ([3]; brain, 30 mg/kg, Day 7, Brain, 30 mg/kg PO, read-out: AUClast): 10900 ng·h/mL
half-life ([3]; brain, 30 mg/kg, Day 7, Brain, 30 mg/kg PO, read-out: Terminal t1/2 (converted)): 34.4 h
AUC(0-t) ([3]; brain, 30 mg/kg, brain, D 1-30 mg/kg, PO, read-out: AUClast (b)): 4260 ng·h/mL
AUC(0-t) ([3]; brain, 30 mg/kg/day, brain, D 7-30 mg/kg, PO, read-out: AUClast (b)): 10900 ng·h/mL
half-life ([3]; plasma, 30 mg/kg, 7 days Mouse TOX, D 1-30 mg/kg, PO, read-out: t½ (converted)): 2.62 h
AUC(0-inf) [3, 8]: 2370 ng·h/mL
Cmax [3, 8]: 968 ng/mL
Tmax [3, 8]: 0.5 h
AUC(0-t) ([3]; plasma, 30 mg/kg, Day 1, Plasma, 30 mg/kg PO, read-out: AUClast): 2370 ng·h/mL
half-life ([3]; plasma, 30 mg/kg, Day 1, Plasma, 30 mg/kg PO, read-out: Terminal t1/2 (converted)): 2.62 h
AUC(0-inf) [3, 9]: 3570 ng·h/mL
Cmax [3, 9]: 1210 ng/mL
Tmax [3, 9]: 0.5 h
AUC(0-t) ([3]; plasma, 30 mg/kg, Day 7, Plasma, 30 mg/kg PO, read-out: AUClast): 3560 ng·h/mL
half-life ([3]; plasma, 30 mg/kg, Day 7, Plasma, 30 mg/kg PO, read-out: Terminal t1/2 (converted)): 3.13 h
AUC(0-t) ([3]; plasma, 30 mg/kg, plasma, D 1-30 mg/kg, PO, read-out: AUClast (p)): 2370 ng·h/mL
half-life ([3]; plasma, 30 mg/kg/day, 7 days Mouse TOX, D 7-30 mg/kg, PO, read-out: t½ (converted)): 3.13 h
AUC(0-t) ([3]; plasma, 30 mg/kg/day, plasma, D 7-30 mg/kg, PO, read-out: AUClast (p)): 3560 ng·h/mL
